Results on two molecules are retold here after patent publication US3940382A, “1,2'-Di-N-substituted kanamycin B compounds” (Zaidan Hojin Biseibutsu Kagaku Kenkyu Kai, priority 1973, dated 1976).

In brackets after ≈: the same amount, converted by molar mass. Where only a bound is given, the exact number is not on record here.

Assay [1] has as its system kanamycin-resistant bacteria. Particulars: some kanamycin-resistant bacteria; cited from earlier work.
The test system of assay [2] is ribostamycin-resistant bacteria. The settings on record: some ribostamycin-resistant bacteria; cited from earlier work.
Assay [3] concerns Staphylococcus aureus Smith. The experiment in a line: MIC, serial dilution on nutrient agar. In kind it is cell-based. Particulars: Staphylococcus aureus Smith; nutrient agar, 37°C, 18 hours; read-out: Minimum Inhibitory Concentrations.
The test system of assay [4] is Staphylococcus aureus FDA 209P. The experiment in a line: MIC, serial dilution on nutrient agar. In kind it is cell-based. Particulars: FDA209P; Staphylococcus aureus FDA 209P; nutrient agar, 37°C, 18 hours; read-out: Minimum Inhibitory Concentrations.
The subject of assay [5] is Staphylococcus aureus Terejima. The experiment in a line: MIC, serial dilution on nutrient agar. Particulars: Staphylococcus aureus Terejima; nutrient agar, 37°C, 18 hours; read-out: Minimum Inhibitory Concentrations. In kind it is cell-based.
For a further assay, the system named is Sarcina lutea PCI 1001. The experiment in a line: MIC, serial dilution on nutrient agar. In kind it is cell-based. Particulars: Micrococcus luteus, PCI1001; Sarcina lutea PCI 1001; nutrient agar, 37°C, 18 hours; read-out: Minimum Inhibitory Concentrations.
Another assay has as its system Bacillus anthracis. Briefly: microbe, parasite or virus in culture. The settings on record: 18 h, read-out: Minimum Inhibitory Concentrations. In kind it is cell-based.
Assay [6] has as its system Bacillus subtilis PCI 219. The experiment in a line: MIC, serial dilution on nutrient agar. In kind it is cell-based. Particulars: PCI219; Bacillus subtilis PCI 219; nutrient agar, 37°C, 18 hours; read-out: Minimum Inhibitory Concentrations.
Assay [7] concerns Bacillus subtilis NRRL B-558. The experiment in a line: MIC, serial dilution on nutrient agar. In kind it is cell-based. The settings on record: NRRLB558; Bacillus subtilis NRRL B-558; nutrient agar, 37°C, 18 hours; read-out: Minimum Inhibitory Concentrations.
Assay [8] concerns Bacillus cereus ATCC 10702. The experiment in a line: MIC, serial dilution on nutrient agar. In kind it is cell-based. The settings on record: ATCC10702; Bacillus cereus ATCC 10702; nutrient agar, 37°C, 18 hours; read-out: Minimum Inhibitory Concentrations.
The test system of assay [9] is Corynebacterium bovis 1810. The experiment in a line: MIC, serial dilution on nutrient agar. The format is cell-based. Particulars: Corynebacterium bovis 1810; nutrient agar, 37°C, 18 hours; read-out: Minimum Inhibitory Concentrations.
The subject of assay [10] is Mycobacterium smegmatis ATCC 607. The experiment in a line: MIC, serial dilution on nutrient agar. In kind it is cell-based. Particulars: Mycolicibacterium smegmatis, ATCC607; Mycobacterium smegmatis ATCC 607; nutrient agar, 37°C, 18 hours; read-out: Minimum Inhibitory Concentrations.
In assay [11] the test system is Shigella dysenteriae JS 11910. The experiment in a line: MIC, serial dilution on nutrient agar. Particulars: JS11910, 18 h, read-out: Minimum Inhibitory Concentrations. The format is cell-based.
Assay [12] concerns Escherichia coli K-12 ML 1630. The experiment in a line: MIC, serial dilution on nutrient agar. In kind it is cell-based. The settings on record: K12ML1630, 37°C, 18 hours, read-out: Minimum Inhibitory Concentrations. The gist of the method: (§1)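 Agar serial dilution in nutrient agar medium, 37°C. MIC (mcg/ml) read after 18 h incubation.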
The subject of assay [13] is Shigella flexneri 4b JS 11811. The experiment in a line: MIC, serial dilution on nutrient agar. In kind it is cell-based. The settings on record: 4BJS11811, 37°C, 18 hours, read-out: Minimum Inhibitory Concentrations. The gist of the method:
as §1

For a further assay, the system named is Shigella sonnei JS 11746. Briefly: MIC, serial dilution on nutrient agar. The format is cell-based. The settings on record: JS11746, 37°C, 18 hours, read-out: Minimum Inhibitory Concentrations. In short, it runs like this: as §1
In another assay the test system is Salmonella typhosa T-63. The experiment in a line: MIC, serial dilution on nutrient agar. The format is cell-based. Particulars: Salmonella enterica, 18 h, read-out: Minimum Inhibitory Concentrations.
Assay [14] deals with Salmonella enteritidis 1891. The experiment in a line: MIC, serial dilution on nutrient agar. Particulars: Salmonella enterica, ENTERITIDIS, 18 h, read-out: Minimum Inhibitory Concentrations. In kind it is cell-based.
The next assay has as its system Proteus vulgaris OX 19. Briefly: MIC, serial dilution on nutrient agar. In kind it is cell-based. The settings on record: OX19; Proteus vulgaris OX 19; nutrient agar, 37°C, 18 hours; read-out: Minimum Inhibitory Concentrations.
The subject of assay [15] is Klebsiella pneumoniae PCI 602. Briefly: MIC, serial dilution on nutrient agar. The format is cell-based. The settings on record: PCI602; Klebsiella pneumoniae PCI 602; nutrient agar, 37°C, 18 hours; read-out: Minimum Inhibitory Concentrations.
Assay [16] concerns Klebsiella pneumoniae 22 -3038. Briefly: MIC, serial dilution on nutrient agar. Particulars: 223038; Klebsiella pneumoniae 22 -3038; nutrient agar, 37°C, 18 hours; read-out: Minimum Inhibitory Concentrations. In kind it is cell-based.
The subject of the next assay is Escherichia coli NIHJ. The experiment in a line: MIC, serial dilution on nutrient agar. The format is cell-based. Particulars: Escherichia coli NIHJ; nutrient agar, 37°C, 18 hours; read-out: Minimum Inhibitory Concentrations.
The next assay deals with Escherichia coli K-12. The experiment in a line: MIC, serial dilution on nutrient agar. The format is cell-based. Particulars: K12; Escherichia coli K-12; nutrient agar, 37°C, 18 hours; read-out: Minimum Inhibitory Concentrations.
The test system of assay [17] is Escherichia coli K-12 ML 1629. Briefly: MIC, serial dilution on nutrient agar. The format is cell-based. The settings on record: K12ML1629; Escherichia coli K-12 ML 1629; nutrient agar, 37°C, 18 hours; read-out: Minimum Inhibitory Concentrations.
Assay [18] relates to Escherichia coli K-12 ML 1410. The experiment in a line: MIC, serial dilution on nutrient agar. Particulars: Escherichia coli, K12ML1410, 18 h, read-out: Minimum Inhibitory Concentrations. The format is cell-based.
Assay [19] concerns Escherichia coli K-12 ML 1410 R81. Briefly: MIC, serial dilution on nutrient agar. In kind it is cell-based. Particulars: 18 h, read-out: Minimum Inhibitory Concentrations.
Assay [20] concerns Escherichia coli LA290 R55. The experiment in a line: MIC, serial dilution on nutrient agar. Particulars: LA290R55, 18 h, read-out: Minimum Inhibitory Concentrations. In kind it is cell-based.
The subject of assay [21] is Escherichia coli LA290 R56. The experiment in a line: MIC, serial dilution on nutrient agar. The format is cell-based. The settings on record: LA290R56, 18 h, read-out: Minimum Inhibitory Concentrations.
In assay [22] the test system is Escherichia coli LA290 R64. Briefly: MIC, serial dilution on nutrient agar. The settings on record: LA290R64, 18 h, read-out: Minimum Inhibitory Concentrations. The format is cell-based.
A further assay concerns Escherichia coli W677. The experiment in a line: MIC, serial dilution on nutrient agar. The format is cell-based. Particulars: Escherichia coli W677; nutrient agar, 37°C, 18 hours; read-out: Minimum Inhibitory Concentrations.
The test system of assay [23] is Escherichia coli JR66/W677. The experiment in a line: MIC, serial dilution on nutrient agar. In kind it is cell-based. The settings on record: Escherichia coli JR66/W677; nutrient agar, 37°C, 18 hours; read-out: Minimum Inhibitory Concentrations.
Assay [24] has as its system Pseudomonas aeruginosa A3. The experiment in a line: MIC, serial dilution on nutrient agar. In kind it is cell-based. Particulars: Pseudomonas aeruginosa, A3, 18 h, read-out: Minimum Inhibitory Concentrations.
The test system of assay [25] is Pseudomonas aeruginosa No.12. The experiment in a line: MIC, serial dilution on nutrient agar. Particulars: Pseudomonas aeruginosa No.12; nutrient agar, 37°C, 18 hours; read-out: Minimum Inhibitory Concentrations. In kind it is cell-based.
Assay [26] concerns Pseudomonas aeruginosa TI-13. Briefly: MIC, serial dilution on nutrient agar. In kind it is cell-based. The settings on record: Pseudomonas aeruginosa, TI13, 18 h, read-out: Minimum Inhibitory Concentrations.
The subject of assay [27] is Pseudomonas aeruginosa GN315. The experiment in a line: MIC, serial dilution on nutrient agar. The format is cell-based. The settings on record: Pseudomonas aeruginosa GN315; nutrient agar, 37°C, 18 hours; read-out: Minimum Inhibitory Concentrations.
The subject of assay [28] is Pseudomonas aeruginosa 99. Briefly: MIC, serial dilution on nutrient agar. Particulars: Pseudomonas aeruginosa 99; nutrient agar, 37°C, 18 hours; read-out: Minimum Inhibitory Concentrations. The format is cell-based.
The subject of assay [29] is kanamycin-resistant strains. Particulars: strains phosphorylating the 3'-hydroxyl group of kanamycins; cited from earlier work.
Assay [30] concerns Escherichia coli JR66/W677. Particulars: strain adenylylating the 2"-hydroxyl group; cited from earlier work.
The subject of another assay is drug-resistant bacteria. Particulars: cited from earlier work.

For `NCC[C@H](O)C(=O)N[C@@H]1C[C@H](N)[C@@H](O[C@H]2O[C@H](CN)[C@@H](O)[C@H](O)[C@H]2N)[C@H](O[C@@H]2O[C@H](CO)[C@@H](O)[C@H]2O)[C@H]1O` [butirosin B, 1-N-[(S)-α-hydroxy-γ-amino-n-butyryl]-ribostamycin], in assay [1], the “activity against kanamycin-resistant bacteria” value is reported as “active”. The “activity against ribostamycin-resistant bacteria” value in [2] is “active”.

Turning to `NC[C@@H]1CC[C@@H](N)[C@@H](O[C@H]2[C@H](O)[C@@H](O[C@H]3O[C@H](CO)[C@@H](O)[C@H](N)[C@H]3O)[C@H](N)C[C@@H]2N)O1` [DKB, 3',4'-dideoxykanamycin B, reference compound], the MIC in assay [3] is < 0.2 µg/mL; in assay [4] it was < 0.2 µg/mL; in [5], < 0.2 µg/mL; with Sarcina lutea PCI 1001, 6.25 µg/mL (≈ 13.8 µM); in the assay with Bacillus anthracis, < 0.2 µg/mL; in assay [6] it was < 0.2 µg/mL. For the same molecule, the MIC in assay [7] was < 0.2 µg/mL; in [8] it was 0.78 µg/mL (≈ 1.73 µM); in [9], 3.13 µg/mL (≈ 6.93 µM); in assay [10], 0.39 µg/mL (≈ 0.864 µM); in assay [11] it was 1.56 µg/mL (≈ 3.45 µM); in assay [12], 0.78 µg/mL (≈ 1.73 µM). Further, the MIC in assay [13] is 1.56 µg/mL (≈ 3.45 µM); with Shigella sonnei JS 11746 it was 0.78 µg/mL (≈ 1.73 µM); in the assay with Salmonella typhosa T-63 it was < 0.2 µg/mL; in assay [14] it was 1.56 µg/mL (≈ 3.45 µM); in the assay with Proteus vulgaris OX 19, < 0.2 µg/mL; in [15], 0.39 µg/mL (≈ 0.864 µM). Further, the MIC in assay [16] is 100 µg/mL (≈ 221 µM); in the assay with Escherichia coli NIHJ it was 0.39 µg/mL (≈ 0.864 µM); in the assay on Escherichia coli K-12 it was 0.78 µg/mL (≈ 1.73 µM); in assay [17], 0.78 µg/mL (≈ 1.73 µM); in [18], 1.56 µg/mL (≈ 3.45 µM); in assay [19] it was 1.56 µg/mL (≈ 3.45 µM). In addition, the MIC in assay [20] stood at 50 µg/mL (≈ 111 µM); in assay [21], 12.5 µg/mL (≈ 27.7 µM); in assay [22], 6.25 µg/mL (≈ 13.8 µM); in the assay with Escherichia coli W677, 0.2 µg/mL (≈ 0.443 µM); in assay [23], 50 µg/mL (≈ 111 µM); in [24] it was 1.56 µg/mL (≈ 3.45 µM). The MIC was 0.78 µg/mL (≈ 1.73 µM) in assay [25], 1.56 µg/mL (≈ 3.45 µM) in [26], > 100 µg/mL in assay [27] and 3.13 µg/mL (≈ 6.93 µM) in assay [28]. The “effectiveness against kanamycin-resistant strains” value in assay [29] is “actually effective”. Moreover, the “activity against kanamycin-resistant strains such as Escherichia coli JR66/W677” value in assay [30] was “practically inactive”. The “antibacterial activity against the drug-resistant bacteria” value in the assay on drug-resistant bacteria was “improved antibacterial activity”.
